According to article PMC3316155 (2012):
pKi: −log10 of the molar value. Values belong to the compound of their own block, whether it stands above or below them.

Experiments:
Type in all cases: biochemical
[1] = molecular target: T1, PARP-1 [poly(ADP-ribose) polymerase 1] (Homo sapiens, UniProt P09874); test: […]NAD+ automodification assay, % inhibition at […]; settings: read-out: % reduction at 1 mM
[2] = molecular target: T1, PARP-1 [poly(ADP-ribose) polymerase 1]; test: […]NAD+ automodification assay, single concentration of […]
[3] = molecular target: T1, PARP-1 [poly(ADP-ribose) polymerase 1]; test: Michaelis–Menten kinetics of ADP-ribose incorporation
[4] = molecular target: T1, PARP-1 [poly(ADP-ribose) polymerase 1]; test: […]NAD+ automodification assay with purified PARP-1

T1 sequence (P09874 2-1014): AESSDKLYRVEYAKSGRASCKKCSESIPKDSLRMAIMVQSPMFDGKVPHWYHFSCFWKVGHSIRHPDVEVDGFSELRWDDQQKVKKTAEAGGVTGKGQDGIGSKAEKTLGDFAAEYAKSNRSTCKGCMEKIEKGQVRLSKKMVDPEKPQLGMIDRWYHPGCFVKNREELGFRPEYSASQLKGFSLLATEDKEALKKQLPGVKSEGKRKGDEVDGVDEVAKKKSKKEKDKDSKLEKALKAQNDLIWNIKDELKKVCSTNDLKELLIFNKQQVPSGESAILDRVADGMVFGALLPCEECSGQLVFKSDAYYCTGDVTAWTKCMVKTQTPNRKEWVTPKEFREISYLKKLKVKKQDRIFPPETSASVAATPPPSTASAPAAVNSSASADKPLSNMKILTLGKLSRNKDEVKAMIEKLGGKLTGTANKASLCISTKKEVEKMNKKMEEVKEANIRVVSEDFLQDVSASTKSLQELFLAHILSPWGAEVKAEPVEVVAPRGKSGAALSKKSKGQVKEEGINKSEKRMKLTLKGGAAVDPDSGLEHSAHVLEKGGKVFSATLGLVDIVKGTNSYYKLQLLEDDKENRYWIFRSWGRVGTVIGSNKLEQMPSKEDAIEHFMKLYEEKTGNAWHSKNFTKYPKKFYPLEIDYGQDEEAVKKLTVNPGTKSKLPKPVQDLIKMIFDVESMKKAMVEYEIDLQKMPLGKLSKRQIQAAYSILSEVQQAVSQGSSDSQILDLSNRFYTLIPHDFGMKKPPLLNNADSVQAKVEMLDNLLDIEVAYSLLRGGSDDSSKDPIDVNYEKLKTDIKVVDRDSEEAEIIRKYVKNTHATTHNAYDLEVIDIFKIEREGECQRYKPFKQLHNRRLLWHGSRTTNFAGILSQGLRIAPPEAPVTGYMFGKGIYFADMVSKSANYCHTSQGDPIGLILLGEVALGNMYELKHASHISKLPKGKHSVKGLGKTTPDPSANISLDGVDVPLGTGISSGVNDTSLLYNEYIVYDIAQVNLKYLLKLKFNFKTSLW

inhibition at 1000 µM [1]: ~25%
SMILES: Nc1ncnc2c1ncn2[C@@H]1O[C@H](COP(=O)(O)OP(=O)(O)OP(=O)(O)O)[C@@H](O)[C@H]1O [ATP]

SMILES: Nc1ncnc2c1ncn2[C@@H]1O[C@H](COP(=O)(O)OP(=O)(O)OC[C@H]2OC(O)[C@H](O)[C@@H]2O)[C@@H](O)[C@H]1O (stereo partly shown) [ADP-ribose]
[32P]NAD+ automodification assay, single concentration of 50 μM [2]: With the exception of ADP-ribose, other adenine derivatives only inhibited PARP-1 to a limited extent

Km [3]: 200 to 250 µM
SMILES: NC(=O)c1ccc[n+]([C@@H]2O[C@H](COP(=O)([O-])OP(=O)(O)OC[C@H]3O[C@@H](n4cnc5c(N)ncnc54)[C@H](O)[C@@H]3O)[C@@H](O)[C@H]2O)c1 [NAD^+]

pKi [4]: 6.00 to 6.30
SMILES: Nc1ncnc2c1ncn2[C@@H]1O[C@H](COP(=O)(O)O)[C@@H](OP(=O)(O)O)[C@H]1O [pAp]
